The subject of test [1] is infant foreskin fibroblasts. Description: Fibroblast chemotaxis in modified Boyden chambers (incl. checkerboard and deactivation studies). The test is classed as cell-based, human. Further details: key to FIBROBLAST EFFECTS Migration: NE = No Effect. How it is done:
Target cells used in in vitro chemotaxis assays were infant foreskin fibroblasts obtained by establishing monolayer cultures from explants of tissue. Cells were maintained in Eagle's minimum essential medium (MEM) supplemented with non-essential amino acids, antibiotics, 50 ug/ml ascorbic acid, and 9% fetal calf serum (FCS). Cells were passaged by trypsinization every 3-5 days.
Infant foreskin fibroblasts were harvested from monolayer culture by gentle trypsinization, washed twice in serum-free Eagles's MEM and adjusted to a final concentration of 250,000 cells/ml. The cell suspension (0.4 ml) was added to the upper compartments of blind well modified Boyden chemotaxis chambers. The peptides of the invention being assayed for chemotactic activity were solubilized in glycylglycine (0.015M) buffered NaCl (0.14M), pH 7.2, hereinafter referred to as GGBS, and diluted 50% with serum-free MEM. Test substances were added to the lower compartment of the chemotaxis chambers. Gelatin-treated polycarbonate filters (8 micron pore size) were interposed between the lowest compartment and the upper cell compartment. Loaded chambers were incubated at 37° C. in a humidified atmosphere containing 5% CO2 for 150 minutes. After incubation, the chambers were disassembled, the filters removed, stained with hematoxylin, and mounted on glass cover slips. Fibroblast chemotaxis was quantitated by counting the number of fibroblasts in 20 oil immersion fields (OIF) that migrated and adhered to the lower surface of each filter. Samples were tested in quadruplicate and results are expressed as mean number of fibroblasts per 20 OIF±standard error of the mean (SEM). Chemotaxis neutralization studies were performed by adding TGF-β1 or fibronectin to the upper cell compartment and testing for effects on fibroblast migration to the TGF-β peptides.
Zigmond-Hirsch checkerboard analysis (Zigmond & Hirsch, J. Exptl. Med. 137:387, 1972) was performed to determine whether the 7-mer peptide 368-374 (Val Tyr Tyr Val Gly Arg Lys) induced chemotaxis of fibroblasts, monocytes and neutrophils.
Deactivation studies were utilized to determine whether the peptides of the invention containing the 7-mer peptide amino acid sequence induced chemotaxis via cellular receptors and mechanisms utilized by intact TGF-β.

Test [2] concerns human peripheral blood monocytes. Description: Monocyte chemotaxis in modified Boyden chambers. The test is classed as cell-based. More on the design: key to Monocyte Migration: NE = No Effect. The text has this:
Human peripheral blood neutrophils and monocytes, isolated from whole blood using standard techniques may also be used in the chemotaxis assays, in a manner similar to infant foreskin fibroblasts, to measure the chemotactic activity of the peptides towards inflammatory cells. Such cells may also be maintained in supplemented MEM as above, to which 5-10% FCS may be added. When using neutrophils and monocytes, instead of fibroblasts, the polycarbonate filters used in the modified Boyden chambers had pore sizes of 2 and 3 microns, respectively. As above, all assays were carried out in quadruplicate.
The following 7-mer peptides (peptides 368-374, corresponding to amino acids 368-374 of human TGF-β1): VYYVGRK (SEQ ID NO. 1), LYYIGKT (SEQ ID NO. 2), LYYVGRT (SEQ ID NO. 3), IYYVGRN (SEQ ID NO. 4) and IYYVGRT (SEQ ID NO. 5) were synthesized by the Merrifield technique, purified by HPLC, and tested at different concentrations in the same assay for their ability to stimulate chemotaxis of human peripheral blood monocytes in vitro modified Boyden chambers.

In test [3] the test system is infant foreskin fibroblasts. Kind of test: Collagen production by fibroblasts (modified Peterofsky-Diegelman assay). The class given is cell-based, human. More on the design: key to FIBROBLAST EFFECTS Collagen: NE = No Effect. How it is done:
The peptides of the invention were also found to stimulate collagen production by fibroblasts. Collagen production by fibroblasts in response to the peptides of the present invention was measured utilizing a modified Peterofsky-Diegelman assay. The assay is used to determine whether the peptides of the invention stimulate or inhibit collagen production by fibroblasts.
Low passage (4-12 subpassages) infant foreskin fibroblasts were plated out at a density of 10^5 cells/well in Falcon 3008 multiwell plates in complete maintenance medium containing 10% FCS. After cells reached confluency (72 hr), the medium was changed daily for 3 days, each time being replaced with serum-free maintenance medium containing fresh ascorbic acid. Samples (50 μl) were added to triplicate wells containing 450 μl serum-free MEM supplemented with fresh ascorbic acid and [^3 H]-proline (sp. act. 20 Ci/mmole), but no non-essential amino acids. After an additional 24 hr of culture, supernatants were reacted with protease-free bacterial collagenase to digest all collagen. Similar aliquots of unreacted supernatants and bacterial collagenase-treated supernatants were precipitated with cold 10% trichloroacetic acid (TCA) and were centrifuged for 5 minutes in a Beckman microfuge. Aliquots of the supernatants, after TCA precipitated proteins were pelleted, were placed in vials containing Hydrofluor and then were counted in a scintillation counter. CPM from TCA precipitated supernatants not reacted with bacterial collagenase were subtracted from each culture. The resulting CPM was a reflection of the collagen produced by that culture.
A modified Peterofsky-Diegelmann assay was used to screen peptide samples for their ability to stimulate or inhibit collagen production. Low passage (4-12 subpassages) infant foreskin fibroblast were plated out at a density of 10^5 cells/well of Falcon 3008 multiwell plates in complete maintenance medium containing 10% FCS. After cells reached confluency (72 hr) the medium was changed daily for 3 days, each time being replaced with serum-free maintenance medium containing fresh ascorbic acid. Samples ([…]) were added to triplicate wells containing […] serum free MEM supplemented with fresh ascorbic acid and [^3 H]-proline (sp. act. 20 Ci/mmole), but no non-essential amino acids. After an additional 24 hours of culture, supernatants were reacted with protease-free bacterial collagenase to digest all collagen. Similar aliquots of unreacted supernatants and bacterial collagenase-treated supernatants were precipitated with cold 10% trichloroacetic acid (TCA) and were centrifuged for 5 minutes in a Beckman microfuge. Aliquots of the supernatants, after TCA precipitated proteins were pelleted, were placed in vials containing Hydrofluor and then were counted in a scintillation counter. CPM from TCA precipitated supernatants not reacted with bacterial collagenase were subtracted from each culture. The resulting CPM was a reflection of the collagen produced by that culture.
Collagen production was measured following administration of the various 7-mer peptides 368-374 (SEQ ID NOs. 1-5) to fibroblasts. Peptides […] (SEQ ID NO. 1), LYYIGKT (SEQ ID NO. 2), LYYVGRT (SEQ ID NO. 3), IYYVGRN (SEQ ID NO. 4) and IYYVGRT (SEQ ID NO. 5) were synthesized by the Merrifield technique, purified by HPLC, and tested at different concentrations in the same assay for their ability to stimulate production of collagen in confluent cultures of infant foreskin fibroblasts. Collagen production was measured by incorporation of [^3 H]proline into collagenase-sensitive protein. All samples were tested in triplicate, and values represent the mean of triplicate determinations. Data are expressed as "% stimulation" of collagen production relative to control production in cultures with plain culture medium only added. […]

The test system of test [4] is fibroblasts. Description: HLA-DR, fibroblast effects. The class given is cell-based. Further details: key: NE = No Effect. To be noted: Table II summary.
Test [5] concerns fibroblasts. Description: Hyaluronate production by fibroblasts. The test is classed as cell-based. Further details: key to FIBROBLAST EFFECTS Hyaluronate: NE = No Effect. To be noted: Table II summary.
The subject of test [6] is infant foreskin fibroblasts. Description: Collagen production by fibroblasts (modified Peterofsky-Diegelman assay). The class given is cell-based, human. The following applies: [3H]proline incorporation into collagenase-sensitive protein; listed as LYYIGRT.
[7] abbreviates: peptide in lower compartment of modified Boyden chamber.

With “280-339: synthetic peptide 280-339, corresponds to the amino terminal portion of TGF-β1 monomer (ALDTNYCFSSTEKNCCVRQLYIDFRKDLGWKWIHEPKGYHANFCLGPCPYIWSLDTQYSK; printed: Ala Leu Asp Thr Asn Tyr Cys Phe Ser Ser Thr Glu Lys Asn Cys Cys Val Arg Gln Leu Tyr Ile Asp Phe Arg Lys Asp Leu Gly Trp Lys Trp Ile His Glu Pro Lys Gly Tyr His Ala Asn Phe Cys Leu Gly Pro Cys Pro Tyr Ile Trp Ser Leu Asp Thr Gln Tyr Ser Lys)”, the “FIBROBLAST EFFECTS Migration” value in test [1] (Table II summary) was “NE”. For the same substance, in test [2] (Table II summary), the “Monocyte Migration” value was “NE”. Further, in test [3] (Table II summary), the “FIBROBLAST EFFECTS Collagen” value is recorded as “NE”. For the same substance, the “FIBROBLAST EFFECTS HLA-DR” value in test [4] was “NE”. Besides, in test [5], the “FIBROBLAST EFFECTS Hyaluronate” value was “NE”.

Consider LYYIGKT [7-mer peptide 368-374 homolog], for which the “fibroblast chemotaxis / migration (in words)” value in test [1] (setting [7]) was “induced fibroblast chemotaxis at all of the concentration tested”. Further, the “monocyte chemotaxis / migration (in words)” value in test [2] (setting [7]) was “induced monocyte chemotaxis at all of the concentrations tested”. The “collagen production by fibroblasts (in words)” value in test [3] ([3H]proline incorporation into collagenase-sensitive protein) is reported as “stimulated collagen production to some degree”; in test [6] it was “stimulated collagen production”.

(Values after patent publication US5824647A, “Chemotactic wound healing peptides” (priority 1995, dated 1998).)
